Patent US8076352B2, “Administration of carboline derivatives useful in the treatment of cancer and other diseases” (PTC Therapeutics, Inc., priority 2004, dated 2011)

Tested on: hypoxia-inducible endogenous VEGF expression in HeLa cells
Test: Hypoxia-inducible endogenous VEGF expression, VEGF ELISA of conditioned media (dose-response EC50)
Type: cell-based
Summary of the method: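 HeLa cells were cultured 24-48 h under hypoxia (1% O2, 5% CO2, balance N2) with or without compound. Conditioned-media VEGF protein was measured by ELISA against a standard curve. EC50 and CC50 come from percentage-inhibition curves over, e.g., seven concentrations, with maximal inhibition set at 100%.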

[1] = Homo sapiens, HeLa cells under hypoxic conditions
[2] = Homo sapiens, HeLa cells, hypoxic conditions (1% O2)
[3] = Homo sapiens, HeLa cells, hypoxic conditions (1% O2, 5% CO2)

| EC50 [1] [nM] | EC50 [2] [nM] | Structure (SMILES) | further results |
| --- | --- | --- | --- |
| 8 to 40 |  | CC(C)c1ccc(C2c3[nH]c4ccc(Cl)cc4c3CCN2c2ncccn2)cc1 (stereo not shown) [Compound 352] |  |
| < 8 |  | CCOC(=O)N1CCc2c([nH]c3ccc(Cl)cc23)C1c1cccc(CN2CCN(CCCN(C)C)CC2)c1 (stereo not shown) [Compound 389] |  |
| < 8 |  | N#Cc1ccc(C2c3[nH]c4ccc(Cl)cc4c3CCN2C(=O)Oc2ccc(Cl)cc2)cc1 (stereo not shown) [Compound 350] |  |
|  | < 8 | O=C(Oc1ccc(Cl)cc1)N1CCc2c([nH]c3ccc(Cl)cc23)C1c1ccc(OCCCCCl)cc1 (stereo not shown) [Compound 660] |  |
| 8 to 40 |  | COCCOC(=O)N1CCc2c([nH]c3ccc(Cl)cc23)C1c1ccc(OCCCn2ccnc2)cc1 (stereo not shown) [Compound 385] |  |
|  | > 1000 | CCOC(=O)N1CCc2c([nH]c3ccc(Br)cc23)C1c1ccc(C(=O)N2CCN(CCCN(C)C)CC2)cc1 (stereo not shown) [Compound 560] |  |
|  | < 8 | C=CCOc1ccc(C2c3[nH]c4ccc(Cl)cc4c3CCN2C(=O)Oc2ccc(Cl)cc2)cc1 (stereo not shown) [Compound 400] |  |
|  | 200 to 1000 | CCOC(=O)N1CCc2c([nH]c3ccc(Cl)cc23)C1c1cccc(C(=O)N2CCN(CC)CC2)c1 (stereo not shown) [Compound 525] |  |
| 40 to 200 |  | COc1ccc(C2c3[nH]c4ccc(Cl)cc4c3CCN2C(=O)Cc2cccs2)cc1 (stereo not shown) [Compound 374] |  |
|  | < 8 | Cc1ccc(C2c3[nH]c4ccc(Br)cc4c3CCN2C(=O)Oc2ccc(F)cc2)cc1 (stereo not shown) [Compound 398] |  |
|  | 40 to 200 | O=C(Oc1ccccc1Cl)N1CCc2c([nH]c3ccc(Cl)cc23)C1c1ccc(Cl)cc1 (stereo not shown) [Compound 589] |  |
| 8 to 40 |  | COc1ccc(C2c3[nH]c4ccc(Cl)cc4c3CCN2C(=O)CCCl)cc1 (stereo not shown) [Compound 367] |  |
| > 1000 |  | COc1cccc(C2NCCc3c2[nH]c2ccc(Br)cc32)c1O (stereo not shown) [Compound 377] |  |
|  | 8 to 40 | O=C(Oc1ccccc1)N1CCc2c([nH]c3ccc(Cl)cc23)C1c1ccc(OCC(O)CO)cc1 (stereo not shown) [Compound 626] |  |
|  | < 8 | O=C(Oc1ccc(Cl)cc1)N1CCc2c([nH]c3ccc(Cl)cc23)C1c1ccc(OCCCn2ccnn2)cc1 (stereo not shown) [Compound 417] |  |
| > 1000 |  | CN(C)c1ccc(C2NCCc3c2[nH]c2ccc(Cl)cc32)cc1 (stereo not shown) [Compound 297] |  |
|  | 200 to 1000 | CCOC(=O)N1CCc2c([nH]c3ccc(Br)cc23)C1c1ccc(CNCCN2CCOCC2)cc1 (stereo not shown) [Compound 535] |  |
|  | 40 to 200 | CCOC(=O)N1CCc2c([nH]c3ccc(Br)cc23)C1c1ccc(C(=O)NCCO)cc1 (stereo not shown) [Compound 490] |  |
|  | > 1000 | CCOC(=O)N1CCc2c([nH]c3ccc(Cl)cc23)C1c1cccc(C(=O)N2CCN(CCOC)CC2)c1 (stereo not shown) [Compound 562] |  |
| > 1000 |  | Oc1ccc(Br)cc1C1NCCc2c1[nH]c1ccc(Br)cc21 (stereo not shown) [Compound 382] |  |
| 200 to 1000 |  | Clc1ccc2[nH]c3c(c2c1)CCN(c1ncccn1)C3c1ccc(OCCN2CCOCC2)cc1 (stereo not shown) [Compound 356] |  |
|  | 8 to 40 | CCOC(=O)N1CCc2c([nH]c3ccc(Cl)cc23)C1CC(C)C (stereo not shown) [Compound 472] |  |
|  | 8 to 40 | Nc1ncc(C2c3[nH]c4ccc(Cl)cc4c3CCN2C(=O)Oc2ccc(Cl)cc2)cn1 (stereo not shown) [Compound 457] |  |
|  | 40 to 200 | CCCC1c2[nH]c3ccc(Cl)cc3c2CCN1C(=O)OCC (stereo not shown) [Compound 510] |  |
|  | > 1000 | CSC(C)CC1NCCc2c1[nH]c1ccc(Cl)cc21 (stereo not shown) [Compound 568] |  |
|  | 8 to 40 | CC(C)(C)OC(=O)N[C@@H](Cc1ccccc1)C(=O)Oc1ccc(C2c3[nH]c4ccc(Cl)cc4c3CCN2C(=O)OC(C)(C)C)cc1 (stereo partly shown) [Compound 451] |  |
| > 1000 |  | c1ccc(COc2ccc3[nH]c4c(c3c2)CCNC4c2cccnc2)cc1 (stereo not shown) [Compound 320] |  |

Further lines, the compound ahead of its results:

| Structure (SMILES) | EC50 [1] [nM] | EC50 [2] [nM] | further results |
| --- | --- | --- | --- |
| CCOC(=O)N1CCc2[nH]c3ccc(Br)cc3c2C1 [Compound 243] | > 1000 |  |  |
| CC(=O)N1CCN(CC(O)COc2ccc(C3c4[nH]c5ccc(Cl)cc5c4CCN3C(=O)Oc3ccc(F)cc3)cc2)CC1 (stereo not shown) [Compound 637] |  | < 8 |  |
| CN(C)CCCOc1ccc(C2c3[nH]c4ccc(Cl)cc4c3CCN2C(=O)Oc2ccccc2)cc1 (stereo not shown) [Compound 493] |  | 40 to 200 |  |
| O=C(Oc1ccc(Cl)cc1)N1CCc2c([nH]c3ccc(Cl)cc23)C1c1ccc(OCCn2cncn2)cc1 (stereo not shown) [Compound 840] |  |  | EC50 [3]: 8 to 40 nM |
| Clc1ccc2[nH]c3c(c2c1)CCNC3c1ccc(Cl)c(Cl)c1 (stereo not shown) [Compound 170] | 40 to 200 |  |  |
| CC(C)(C)c1cc(C2c3[nH]c4ccc(Cl)cc4c3CCN2Cc2ccccc2)cc(C(C)(C)C)c1O (stereo not shown) [Compound 263] | > 1000 |  |  |
| Fc1ccc(C2NCCc3c2[nH]c2ccc(Cl)cc32)c(F)c1 (stereo not shown) [Compound 163] | 40 to 200 |  |  |
| CCCOC(=O)N1CCc2c([nH]c3ccc(Cl)cc23)C1c1ccc(C(F)(F)F)cc1 (stereo not shown) [Compound 19] | < 8 |  |  |
| CCOC(=O)N1CCc2c([nH]c3ccc(Cl)cc23)C1c1ccc(Cl)cc1Cl (stereo not shown) [Compound 141] | 40 to 200 |  |  |
| COC(=O)N1CCc2c([nH]c3ccc(Cl)cc23)C1c1ccc(C#N)cc1 (stereo not shown) [Compound 118] | 8 to 40 |  |  |
| COC(=O)N1CCc2c([nH]c3ccc(Cl)cc23)C1c1cc(F)ccc1F (stereo not shown) [Compound 154] | 40 to 200 |  |  |
| Clc1ccc2[nH]c3c(c2c1)CCNC3Cc1ccccc1 (stereo not shown) [Compound 251] | > 1000 |  |  |
| Fc1ccc2[nH]c3c(c2c1)CCNC3c1ccc(Cl)cc1 (stereo not shown) [Compound 254] | > 1000 |  |  |
| COCCN(CCCOc1ccc(C2c3[nH]c4ccc(Cl)cc4c3CCN2C(=O)Oc2ccc(F)cc2)cc1)CCOC (stereo not shown) [Compound 990] |  |  | EC50 [3]: < 8 nM |
| COc1cccc(C2c3[nH]c4ccc(Cl)cc4c3CCN2C(=O)OCCCl)c1 (stereo not shown) [Compound 117] | 8 to 40 |  |  |
| O=C(Oc1ccccc1)N1CCc2c([nH]c3ccc(Br)cc23)C1c1ccccc1 (stereo not shown) [Compound 76] | 8 to 40 |  |  |

| Structure (SMILES) | EC50 [1] [nM] | EC50 [2] [nM] | further results |
| --- | --- | --- | --- |
| CCOC(=O)N1CCc2c([nH]c3ccc(Cl)cc23)C1c1cccc(F)c1 (stereo not shown) [Compound 51] | 8 to 40 |  |  |
| CCCOC(=O)N1CCc2c([nH]c3ccc(Cl)cc23)C1c1ccc([N+](=O)[O-])cc1 (stereo not shown) [Compound 66] | 8 to 40 |  |  |
| CC(C)c1ccc(C2c3[nH]c4ccc(Br)cc4c3CCN2C(=O)Oc2ccc(Cl)cc2)cc1 (stereo not shown) [Compound 572] |  |  | EC50 (HeLa cells, hypoxic conditions (1% O2)): < 8 nM |
| COc1ccc(C2NC(C(=O)Nc3ncc(C)s3)Cc3c2[nH]c2ccc(Br)cc32)cc1 (stereo not shown) [Compound 246] | > 1000 |  |  |
| CCOC(=O)N1CCc2c([nH]c3ccc(Cl)cc23)C1c1ccc(OCc2ccccc2)cc1 (stereo not shown) [Compound 100] | 8 to 40 |  |  |
| CC(C)c1ccc(C2c3[nH]c4ccc(Cl)cc4c3CCN2C(=O)OCCCl)cc1 (stereo not shown) [Compound 18] | < 8 |  |  |
| COc1ccc(OC(=O)N2CCc3c([nH]c4ccc(Cl)cc34)C2c2ccc(OCCCCl)cc2)cc1 (stereo not shown) [Compound 944] |  |  | EC50 [3]: 8 to 40 nM |
| COC(=O)N1CCc2c([nH]c3ccc(Cl)cc23)C1c1cccc(C(F)(F)F)c1 (stereo not shown) [Compound 125] | 40 to 200 |  |  |
| O=C(OCCCl)N1CCc2c([nH]c3ccc(Cl)cc23)C1c1ccc(C(F)(F)F)cc1 (stereo not shown) [Compound 33] | < 8 |  |  |
| O=C(Oc1ccc(F)cc1)N1CCc2c([nH]c3ccc(Cl)cc23)C1c1ccc(OCCn2ccnn2)cc1 (stereo not shown) [Compound 833] |  |  | EC50 [3]: 40 to 200 nM |
| CCOC(=O)N1CCc2c([nH]c3ccc(F)cc23)C1c1ccc(OC)cc1 (stereo not shown) [Compound 191] | 200 to 1000 |  |  |
| CCOC(=O)N1CCc2c([nH]c3ccc(F)cc23)C1c1ccc(Br)cc1 (stereo not shown) [Compound 196] | 200 to 1000 |  |  |
| N#Cc1ccc(C2c3[nH]c4ccc(Cl)cc4c3CCN2C(=O)OCCCl)cc1 (stereo not shown) [Compound 12] | < 8 |  |  |
| Clc1ccc2[nH]c3c(c2c1)CCNC3c1cccc(Cl)c1Cl (stereo not shown) [Compound 168] | 40 to 200 |  |  |
| COCCN(CCCOc1ccc(C2c3[nH]c4ccc(Cl)cc4c3CCN2C(=O)Oc2ccc(Cl)cc2)cc1)CCOC (stereo not shown) [Compound 916] |  |  | EC50 [3]: < 8 nM |
